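Step 1: Grow cells in 96-well plates. Step 2: Expose to compound for 48 hours at 5 concentrations. Step 3: Interpolate endpoints linearly; if unreached, use highest concentration. The concentration for 50% growth inhibition is given as GI50.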 Calls of active or inactive are those of the source. Rule as the data show it: active = GI50 up to about 1.1 µM and inactive = higher.
Tests used:
Assay in all cases: growth of human tumour cells (NCI), 48 h
[1] = system: CAKI-1
[2] = system: ACHN
[3] = system: MOLT-4
[4] = system: RXF 393
[5] = system: EKVX
[6] = system: SR
[7] = system: SK-MEL-2
[8] = system: SN12C
[9] = system: RPMI-8226
[10] = system: HT-29
[11] = system: OVCAR-3
[12] = system: OVCAR-4
[13] = system: SF-268
[14] = system: CCRF-CEM
[15] = system: UO-31
[16] = system: A549
[17] = system: SNB-75
[18] = system: SK-OV-3
[19] = system: UACC-62

Measured: GI50

O=C(O)CCSC(=O)Nc1ccccc1F
inactive: [1] > 100 µM | [2] > 100 µM | [3] > 100 µM | [4] > 100 µM | [5] > 100 µM | [6] > 100 µM | [7] > 100 µM | [8] > 100 µM | [9] > 100 µM | [10] > 100 µM | [11] > 100 µM | [12] > 100 µM | [13] > 100 µM | [14] > 100 µM | [15] > 100 µM | [16] > 100 µM

Cc1c(C(=O)CC(=O)C(=O)Nc2c(C(C)C)cccc2C(C)C)[n+]([O-])c2ccccc2[n+]1[O-]
inactive: [17] 14.4 µM | [1] 22 µM | [2] 2.52 µM | [18] 16.7 µM | [3] 2.9 µM | [4] 13.5 µM | [5] 13.8 µM | [19] 9.98 µM | [7] 11.4 µM | [8] 3.15 µM | [9] 3.18 µM | [10] 3.56 µM | [11] 2.08 µM | [12] 3.48 µM | [13] 5.01 µM | [14] 2.34 µM | [15] 16.6 µM | [16] 15.7 µM

COc1cc(/C=C2\Cc3ccccc3C2=O)cc(OC)c1OC
inactive: [17] 51.5 µM | [1] > 100 µM | [2] > 100 µM | [18] > 100 µM | [3] > 100 µM | [4] > 100 µM | [5] > 100 µM | [19] > 100 µM | [7] > 100 µM | [8] > 100 µM | [9] > 100 µM | [10] > 100 µM | [11] > 100 µM | [12] > 100 µM | [13] > 100 µM | [14] > 100 µM | [15] > 100 µM | [16] > 100 µM

CCOP(=O)(OCC)/C(C#N)=C/c1cn(C)cn1
inactive: [17] > 100 µM | [1] > 100 µM | [2] > 100 µM | [18] > 100 µM | [3] > 10 µM | [4] > 100 µM | [5] > 100 µM | [6] > 100 µM | [19] > 100 µM | [7] > 100 µM | [8] > 100 µM | [10] > 100 µM | [11] > 100 µM | [12] > 100 µM | [13] > 100 µM | [14] > 100 µM | [15] > 100 µM | [16] > 100 µM

C/C(=N\NS(=O)(=O)c1c(C)cc(C)cc1C)c1ccc[n+]([O-])n1
inactive: [17] 16.9 µM | [1] 4.78 µM | [2] 14.2 µM | [18] > 100 µM | [3] 14.5 µM | [5] 12.4 µM | [6] 22.3 µM | [19] 16.4 µM | [8] 14.9 µM | [9] 11.7 µM | [10] 18.3 µM | [11] 12.6 µM | [12] 12.8 µM | [13] 20.1 µM | [14] 3.96 µM | [15] 21.2 µM | [16] 65.2 µM

O=C1OC[C@@H]2Cc3cc4c(cc3[C@H](c3ccc5c(c3)OCO5)[C@@H]12)OCO4
inactive: [1] > 25 µM | [2] > 25 µM | [3] 4.11 µM | [5] > 25 µM | [6] 24 µM | [7] > 25 µM | [8] 21.9 µM | [9] > 25 µM | [10] 24.1 µM | [11] > 25 µM | [12] 13.9 µM | [14] > 25 µM | [15] 15.6 µM | [16] > 25 µM

CC12OC3(C)OC(=O)C(c4ccccc4)(O1)C3(C)O2 (centres undefined)
inactive: [17] > 100 µM | [1] > 100 µM | [2] > 100 µM | [18] > 100 µM | [3] > 100 µM | [4] > 100 µM | [5] > 100 µM | [19] > 100 µM | [7] > 100 µM | [8] > 100 µM | [9] > 100 µM | [10] > 100 µM | [11] > 100 µM | [12] > 100 µM | [13] > 100 µM | [14] > 100 µM | [15] > 100 µM | [16] > 100 µM

O=C(O)CCC1c2[nH]c3ccccc3c2CCN1Cc1ccccc1 (centres undefined)
inactive: [17] > 100 µM | [1] > 100 µM | [2] > 100 µM | [18] > 100 µM | [3] > 100 µM | [5] > 100 µM | [6] > 100 µM | [19] > 100 µM | [7] > 100 µM | [8] > 100 µM | [10] > 100 µM | [11] > 100 µM | [12] > 100 µM | [13] > 100 µM | [14] > 100 µM | [15] > 100 µM | [16] > 100 µM

O/N=C1\CC2(N3CCOCC3)CCC1(Cc1ccccc1)CC2
inactive: [17] 13.5 µM | [1] 64.3 µM | [2] 22.3 µM | [18] 30.5 µM | [3] > 100 µM | [4] 21.1 µM | [5] > 100 µM | [6] > 100 µM | [19] > 10 µM | [7] 37.4 µM | [8] > 100 µM | [10] > 100 µM | [11] > 100 µM | [12] 32.5 µM | [13] 30.9 µM | [14] > 100 µM | [15] > 100 µM | [16] > 100 µM

CCCCNC(=S)Nc1nc(C(=O)NNS(=O)(=O)c2ccccc2)cs1
inactive: [17] 35.6 µM | [1] 27.7 µM | [2] 28.7 µM | [18] 36.6 µM | [3] 34.8 µM | [5] 31.6 µM | [6] 41.1 µM | [19] 22.9 µM | [7] 22.6 µM | [8] 25.6 µM | [9] 31.2 µM | [10] > 10 µM | [11] 24.2 µM | [13] 27.8 µM | [14] 44.3 µM | [15] 26.1 µM | [16] 40.3 µM

O=C1NC(=O)C(=O)C(c2nc3ccccc3s2)C1=O
inactive: [17] > 100 µM | [1] > 100 µM | [2] > 100 µM | [18] > 100 µM | [3] > 100 µM | [4] > 100 µM | [5] > 100 µM | [6] > 100 µM | [19] > 100 µM | [7] > 100 µM | [8] > 100 µM | [10] > 100 µM | [11] > 100 µM | [12] > 100 µM | [13] > 100 µM | [14] > 100 µM | [15] > 100 µM | [16] > 100 µM
